Results on 15 compounds are retold here after ChEMBL document CHEMBL1201862, “PubChem BioAssay data set” (2004).

The target in assay [1] is T1, Dual specificity protein phosphatase 6 (Rattus norvegicus, UniProt Q64346).
T1 sequence (Q64346 whole entry): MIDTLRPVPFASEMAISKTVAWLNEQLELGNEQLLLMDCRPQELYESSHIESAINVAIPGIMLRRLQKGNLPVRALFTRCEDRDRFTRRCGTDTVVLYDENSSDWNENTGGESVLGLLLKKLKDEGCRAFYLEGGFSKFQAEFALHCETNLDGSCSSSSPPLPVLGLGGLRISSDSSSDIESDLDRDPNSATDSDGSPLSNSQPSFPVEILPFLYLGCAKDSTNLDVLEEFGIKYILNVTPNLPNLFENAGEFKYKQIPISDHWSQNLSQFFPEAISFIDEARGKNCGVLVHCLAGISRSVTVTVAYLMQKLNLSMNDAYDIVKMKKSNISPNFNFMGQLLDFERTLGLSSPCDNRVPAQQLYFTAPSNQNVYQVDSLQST
The class given is functional.

For assay [2], the target named is T1, Dual specificity protein phosphatase 6.
The target in assay [3] is T2, Tyrosine-protein phosphatase non-receptor type 7 (Homo sapiens, UniProt P35236).
T2 sequence (P35236 whole entry): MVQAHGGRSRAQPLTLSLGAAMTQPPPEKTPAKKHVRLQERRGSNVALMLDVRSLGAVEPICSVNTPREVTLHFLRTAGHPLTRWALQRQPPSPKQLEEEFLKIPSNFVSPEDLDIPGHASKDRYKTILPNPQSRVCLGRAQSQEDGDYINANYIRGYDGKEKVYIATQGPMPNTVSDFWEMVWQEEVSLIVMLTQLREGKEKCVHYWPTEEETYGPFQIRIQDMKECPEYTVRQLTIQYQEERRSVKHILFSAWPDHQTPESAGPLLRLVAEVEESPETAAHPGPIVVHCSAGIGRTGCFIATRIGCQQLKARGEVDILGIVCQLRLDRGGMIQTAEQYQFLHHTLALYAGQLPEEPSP
The class given is functional.

Assay [4] has as its target Glyceraldehyde-3-phosphate dehydrogenase (Homo sapiens, UniProt P04406).
Assay [5] is described as follows: HEp-2 cell cytotoxicity, dose response, cytotoxicity control for RSV inhibitor project, HTS (AID 2410). To be noted: human respiratory syncytial virus. The class given is functional.
Assay [6] deals with Female germline-specific tumor suppressor gld-1 (Caenorhabditis elegans, UniProt Q17339). Nature of the assay: inhibitors of GLD-1 binding to TGE RNA, dose response, biochemical, fluorescence polarization, C. elegans (AID 2802). (Polarisation of emitted light reports the rotation of a fluorescent probe.)
A further assay deals with Protein Rev (Human immunodeficiency virus type 1 group M subtype B (isolate HXB2)(HIV-1), UniProt P04618). Kind of assay: inhibitors of Rev binding to RRE RNA, dose response, biochemical, fluorescence polarization, HIV-1 (AID 434976). On the set-up: species or system Human immunodeficiency virus 1.
Assay [7] concerns the target T3, Eukaryotic translation initiation factor 2-alpha kinase 3 (Homo sapiens, UniProt Q9NZJ5).
T3 sequence (Q9NZJ5 whole entry): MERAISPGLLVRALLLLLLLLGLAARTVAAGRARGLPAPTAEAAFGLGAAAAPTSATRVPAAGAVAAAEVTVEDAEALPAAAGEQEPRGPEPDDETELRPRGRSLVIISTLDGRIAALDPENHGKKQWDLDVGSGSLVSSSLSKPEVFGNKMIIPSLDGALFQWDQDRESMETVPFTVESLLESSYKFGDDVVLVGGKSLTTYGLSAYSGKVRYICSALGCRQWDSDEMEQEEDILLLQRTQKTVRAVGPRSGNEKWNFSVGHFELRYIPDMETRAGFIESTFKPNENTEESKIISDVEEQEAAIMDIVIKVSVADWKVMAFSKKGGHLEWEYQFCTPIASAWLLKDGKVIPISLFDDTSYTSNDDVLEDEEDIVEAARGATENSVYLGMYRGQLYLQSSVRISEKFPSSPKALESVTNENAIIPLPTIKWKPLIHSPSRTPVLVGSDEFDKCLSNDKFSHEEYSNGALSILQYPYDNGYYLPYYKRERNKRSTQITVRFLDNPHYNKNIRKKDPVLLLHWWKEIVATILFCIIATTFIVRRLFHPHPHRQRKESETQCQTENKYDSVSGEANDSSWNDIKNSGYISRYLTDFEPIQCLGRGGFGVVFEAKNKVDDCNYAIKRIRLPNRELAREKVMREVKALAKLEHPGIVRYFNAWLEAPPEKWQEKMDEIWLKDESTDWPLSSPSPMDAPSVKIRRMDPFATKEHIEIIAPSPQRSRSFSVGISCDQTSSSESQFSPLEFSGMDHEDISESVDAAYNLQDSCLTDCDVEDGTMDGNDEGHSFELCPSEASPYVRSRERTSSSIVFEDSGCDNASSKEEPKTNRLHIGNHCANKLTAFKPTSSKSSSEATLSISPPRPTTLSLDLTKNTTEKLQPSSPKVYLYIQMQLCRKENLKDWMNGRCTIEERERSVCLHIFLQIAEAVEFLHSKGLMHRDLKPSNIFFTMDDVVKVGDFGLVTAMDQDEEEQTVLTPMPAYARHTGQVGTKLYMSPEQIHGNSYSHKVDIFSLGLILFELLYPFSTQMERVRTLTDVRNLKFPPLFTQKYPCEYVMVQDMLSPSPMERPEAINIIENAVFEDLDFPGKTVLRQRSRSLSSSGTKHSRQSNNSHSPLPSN
Kind of assay: Dose response cell-based high-throughput screening assay to measure PERK inhibition. [Related pubchem assays: 1416 ]. The class given is functional.

The target in assay [8] is T3, Eukaryotic translation initiation factor 2-alpha kinase 3. Kind of assay: Counterscreen assay for PERK inhibitors: Dose response cell-based high throughput screening assay to measure inhibition of PERK at 6 hours. [Related pubchem assays: 1522, 1416 ]. The class given is functional. (In general: The purpose of a counterscreen is to sort out artefacts and off-target activity.)

Assay [9] has as its target Acyl-homoserine lactone acylase PvdQ (Pseudomonas aeruginosa (strain LESB58), UniProt Q9I194). Nature of the assay: P. aeruginosa PvdQ acylase inhibitors, dose response, biochemical, fluorescence, plate reader and imaging, cherry-picks (AID 493231).
The target in another assay is Genome polyprotein (dengue virus type 2, UniProt P29990). Kind of assay: Dengue-2 NS5 methyltransferase inhibitors, primary screen, biochemical, confirmation dose response (AID 588689). The class given is functional.
In a further assay the target is NS3 (Hepatitis C virus, UniProt A3EZJ3). Kind of assay: PubChem AID 2173. On the set-up: species or system Hepacivirus hominis.
In a further assay the test system is Vero. Nature of the assay: Vero cell cytotoxicity, cytotoxicity control for flavivirus capping enzyme inhibitors (AID 588742). The class given is functional. To be noted: Chlorocebus sabaeus.
Assay [10] is described as follows: Luminescence Cell-Based Dose Confirmation HTS to Identify Inhibitors of Platelet Dense Granule Release. [Related pubchem assays: 1663 (Primary HTS), 1678 (Summary of Project)]. The class given is functional.
Assay [11] can be described thus: HIV-1 Env-mediated cell fusion inhibitors, dose response, CCR5-tropic Env (AID 2279). The class given is functional.
Assay [12] deals with Luciferin 4-monooxygenase (Photinus pyralis, UniProt P08659). Nature of the assay: firefly luciferase enzyme inhibitors, dose response, biochemical, luminescence (AID 1891).
A further assay concerns H4. Kind of assay: Luminescence Cell-Based Dose Response HTS to Identify Activators of 5'UTR Stem-Loop Driven Prion Protein mRNA Translation in H4 Neuroglioblastoma Cells. [Related pubchem assays: 1829 (Project Summary), 1814 (Primary HTS)]. Conditions: Homo sapiens. The class given is functional.
Assay [13] can be described thus: Luminescence Cell-Based Dose Confirmation HTS to Identify Activators of 5'UTR Stem-Loop Driven Alpha-Synuclein mRNA Translation in H4 Neuroglioblastoma Cells. [Related pubchem assays: 1829 (Project Summary), 1814 (Primary HTS)]. The class given is functional.
The target of assay [14] is T4, Nucleotide-binding oligomerization domain-containing protein 1 (Homo sapiens, UniProt Q9Y239).
T4 sequence (Q9Y239 whole entry): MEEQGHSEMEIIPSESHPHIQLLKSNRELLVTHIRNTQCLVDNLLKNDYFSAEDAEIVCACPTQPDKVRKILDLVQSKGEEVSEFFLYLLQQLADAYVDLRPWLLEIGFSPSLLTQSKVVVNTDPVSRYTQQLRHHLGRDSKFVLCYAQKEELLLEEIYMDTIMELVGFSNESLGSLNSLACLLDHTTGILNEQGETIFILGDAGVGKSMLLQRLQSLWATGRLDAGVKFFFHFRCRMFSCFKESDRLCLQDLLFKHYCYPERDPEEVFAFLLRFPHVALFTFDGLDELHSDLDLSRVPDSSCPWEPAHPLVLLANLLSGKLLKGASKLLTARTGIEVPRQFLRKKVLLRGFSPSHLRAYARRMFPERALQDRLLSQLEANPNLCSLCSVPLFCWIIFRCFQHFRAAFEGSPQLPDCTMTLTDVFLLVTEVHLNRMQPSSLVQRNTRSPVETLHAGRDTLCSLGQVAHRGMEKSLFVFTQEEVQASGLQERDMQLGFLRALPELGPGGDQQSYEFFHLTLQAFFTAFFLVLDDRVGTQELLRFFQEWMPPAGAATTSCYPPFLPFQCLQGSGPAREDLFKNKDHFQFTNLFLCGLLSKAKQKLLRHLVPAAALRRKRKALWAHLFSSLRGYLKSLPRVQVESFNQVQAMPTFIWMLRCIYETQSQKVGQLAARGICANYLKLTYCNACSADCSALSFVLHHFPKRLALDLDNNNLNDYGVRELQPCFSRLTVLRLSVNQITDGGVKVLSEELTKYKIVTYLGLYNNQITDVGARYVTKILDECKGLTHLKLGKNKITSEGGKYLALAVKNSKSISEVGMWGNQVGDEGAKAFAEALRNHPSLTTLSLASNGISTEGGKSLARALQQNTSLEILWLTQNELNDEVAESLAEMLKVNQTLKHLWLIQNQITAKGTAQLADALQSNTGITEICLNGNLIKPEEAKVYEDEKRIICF
Kind of assay: NOD1 signaling inhibitors, SAR follow-up, revised (AID 2333). The class given is functional.

Assay [15] addresses Nucleotide-binding oligomerization domain-containing protein 2 (Homo sapiens, UniProt Q9HC29). Kind of assay: PubChem AID 2334. The class given is functional.
The subject of another assay is HEK293. Kind of assay: cells. To be noted: Homo sapiens.
Another assay concerns the target Tumor necrosis factor (Homo sapiens, UniProt P01375). Nature of the assay: TNFa-triggered NF-kB activation inhibitors, SAR follow-up, cell-based, revised (AID 2337). The class given is functional.
For another assay, the target named is X-box-binding protein 1 (Homo sapiens, UniProt P17861). The class given is functional, Cricetulus griseus.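 Note: confirmatory dose-response counter-screen serving a CHOP assay.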

Where “and” joins values, the source holds several entries; their conditions need not be identical. Equal entries are not always repeated. Calls of active or inactive are those of the source. Some results are limits rather than exact numbers.

Regarding `CC(C)CNc1nc(=O)n(-c2ccc(F)cc2)c(=O)[nH]1`, the IC50 is > 100 µM (inactive) in [1], > 100 µM (inactive) in [2], > 100 µM (not active) in assay [3] and > 100 µM (not active) in assay [4].

As for `Cc1ccc2cc(CN(CC3CCCO3)C(S)=NCc3ccco3)c(O)nc2c1C` (stereo not drawn), the IC50 in “cells” is 24.6 µM (active). In assay [5], the CC50 is 24.3 µM (active).

For `Cc1cc2ccccn2c1C(=O)C(=O)O`, the IC50 in assay [1] was > 100 µM (inactive); in assay [2] it was > 100 µM (inactive); in assay [3] it was > 100 µM (not active); in assay [4], > 100 µM (not active).

Consider `Nc1cccc(C(=O)OCC(=O)Nc2cccc3c2C(=O)c2ccccc2C3=O)c1`, for which the IC50 in assay [6] was 1.96 µM (active); at Protein Rev, 5.22 µM (active).

As to `CCc1cccc(C)c1NC(=O)Nc1ccc2c(c1)OCO2`, the EC50 in [7] and in assay [8] was > 55.7 µM (not active) throughout.

As for `CN1CCOCCOCCN(C)C(=O)N2CCOCCOCCN(CCOCC2)C1=O`, the EC50 in assay [7] and in assay [8] was > 55.7 µM (not active) in each case.

For the compound `Cc1ccc2c(c1)C1C3CCC(C3)C1[S+]([O-])N2` (stereo not drawn), in assay [9], the AC50 is 25.6 µM (active).

`CCOC(=O)c1ccc(N2C(=O)C(C)=C(C)C2=O)cc1`: the AC50 in [9] is 25 µM (active).

Turning to `O=C(/C=C/c1ccc(OCc2c(F)cccc2Cl)cc1)N1CCOCC1`, the IC50 in “cells” is 10.4 µM (active). Also, the CC50 in assay [5] was 15.9 µM (active).

As for `Cc1cc(N2C(=O)C(O)=C(C(=O)c3ccc(C)o3)C2c2cccc(Oc3ccccc3)c2)no1` (stereo not drawn), the IC50 on Genome polyprotein is 32 µM (active); at NS3 it was 1.95 µM (active). Moreover, the CC50 in the assay with Vero is > 40 µM (active).

On to `CCOC(=O)c1sc(N2C(=O)C(O)=C(C(=O)c3ccc(C)o3)C2c2cccc([N+](=O)[O-])c2)nc1C` (stereo not drawn), for which the EC50 in assay [10] is 18.5 µM (active); in assay [12] it was > 112 µM (not active). Also, the IC50 in assay [11] is 41.1 µM (active).

In the case of `COc1ccc(C(=O)C2=C(O)C(=O)N(c3ccccn3)C2c2ccc(C(C)C)cc2)cc1` (stereo not drawn), the EC50 is 17 µM (active) in the assay on H4 and 22.4 µM (active) in assay [13]. Moreover, the IC50 on NS3 is 6.24 µM (active).

Take `O=C(Nc1ccc(Br)cc1)c1ccc(CN2CCc3ccccc3C2)cc1`: the IC50 in assay [14] is 1.03 µM (active) and 399 nM (active); in assay [15], 1.62 µM (active); in the assay on HEK293, > 20 µM (inactive); at Tumor necrosis factor, 1.5 µM (active) and 10.9 µM (active).

Regarding `O=C(Nc1nc2ccccc2n1Cc1ccccc1Cl)c1ccco1`, the IC50 (in assay [14]; in assay [15]; in the assay on HEK293; at Tumor necrosis factor) was > 20 µM (inactive) each time.

Regarding `Cc1cc(/C=N/Nc2nc(N)ncc2[N+](=O)[O-])c(C)n1-c1cccc(C(F)(F)F)c1`, on X-box-binding protein 1, the “Absolute IC50 (XBP1)” value was 10 µM.

Usually IC50 stands for the point on the concentration scale where inhibition reaches its midpoint. As usually defined, the CC50 is the concentration giving 50% cytotoxicity. For orientation: EC50 means the concentration needed to bring the measured effect to its halfway point. The AC50 is the concentration at which the activity in the assay is half-maximal.
